Test results as given in patent publication EP0908457B1, “3-(1,2-benzisothiazol- and isoxazol-5-Y1)-2,4(1H,3H)-pyrimidinedione or thione and 3-(1,2-benzisothiazol- and isoxazol-5-y1)-4(3H)-pyrimidinone or thione herbicidal agents” (BASF AKTIENGESELLSCHAFT, priority 1997, dated 1999).

Key:
[1] = tested on: Cyperus iria; experiment: Preemergence weed control under flooded paddy conditions, CYPIR (Rice Flatsedge); format: in vivo; settings: flooded paddy; for herbicidal effect rating, CYPIR: meaning of each grade not given here
[2] = tested on: Echinochloa oryzoides (Ard.) Fritsch.; experiment: Preemergence weed control under flooded paddy conditions, ECHORC (Watergrass (Calif.)); format: in vivo; settings: flooded paddy; for herbicidal effect rating, ECHORC: meaning of each grade not given here
[3] = tested on: Cyperus serotinus, Rottb.; experiment: Preemergence weed control under flooded paddy conditions, CYPSE (Flatsedge); format: in vivo; for herbicidal effect rating, CYPSE: meaning of each grade not given here
[4] = tested on: Oryza sativa, (L.) Tebonnet; experiment: Rice tolerance to post-transplant applications under flooded paddy conditions (Example 187), ORYSAT (Rice, Tebonnet); for herbicidal effect rating ORYSAT: meaning of each grade not given here
[5] = tested on: Sagittaria pygmaea, L.; experiment: Preemergence weed control under flooded paddy conditions, SAGPY (Arrowhead (Pygmaea)); format: in vivo; settings: flooded paddy; for herbicidal effect rating, SAGPY: meaning of each grade not given here
[6] = tested on: Monochoria vaginalis, Presl.; experiment: Preemergence weed control under flooded paddy conditions, MOOVA (Monochoria); format: in vivo; settings: flooded paddy; for herbicidal effect rating, MOOVA: meaning of each grade not given here
[7] = Rate 0.0320 kg/ha, preemergence, rated three to four weeks after treatment
[8] = Rate 0.0620 kg/ha, preemergence, rated three to four weeks after treatment
[9] = Rate 0.1250 kg/ha, preemergence, rated three to four weeks after treatment
[10] = Rate 0.2500 kg/ha, preemergence, rated three to four weeks after treatment
[11] = Rate 0.0320 kg/ha, rated three to four weeks after treatment
[12] = Rate 0.0620 kg/ha, rated three to four weeks after treatment
[13] = Rate 0.1250 kg/ha, rated three to four weeks after treatment
[14] = Rate 0.2500 kg/ha, rated three to four weeks after treatment
[15] = Rate 0.2500 kg/ha, preemergence weeds, rated three to four weeks after treatment
[16] = 0.0320 kg/ha, preemergence, rated three to four weeks after treatment
[17] = 0.0620 kg/ha, preemergence, rated three to four weeks after treatment
[18] = 0.1250 kg/ha, preemergence, rated three to four weeks after treatment
[19] = 0.2500 kg/ha, preemergence, rated three to four weeks after treatment
[20] = Rate 0.0320 kg/ha, preemergence, rated 3-4 weeks after treatment
[21] = Rate 0.0620 kg/ha, preemergence, rated 3-4 weeks after treatment
[22] = Rate 0.1250 kg/ha, preemergence, rated 3-4 weeks after treatment
[23] = Rate 0.2500 kg/ha, preemergence, rated 3-4 weeks after treatment
[24] = Rate 0.5000 kg/ha, preemergence, rated 3-4 weeks after treatment

CCOc1ccc2sc(S(=O)(=O)NC(=O)COc3ccc(C)cc3-c3nsc4ccc(-n5c(=O)cc(C(F)(F)F)n(C)c5=O)cc34)nc2c1 [Example 289, Acetamide, 2-{{2-{5-[3,6-dihydro-3-methyl-2,6-dioxo-4-(trifluoromethyl)-1(2H)-pyrimidinyl]-1,2-benzisothiazol-3-yl}-p-tolyl}oxy}-N-[(5-ethoxybenzothiazol-2-yl)sulfonyl]-]
2.0: ECHORC herbicidal effect rating [2, 8]
9.0: CYPIR herbicidal effect rating [1, 9] | CYPIR herbicidal effect rating [1, 10] | MOOVA herbicidal effect rating [6, 9] | MOOVA herbicidal effect rating [6, 10]
4.0: ECHORC herbicidal effect rating [2, 10]
3.0: ECHORC herbicidal effect rating [2, 9]
0.0: CYPIR herbicidal effect rating [1, 7] | CYPIR herbicidal effect rating [1, 8] | ECHORC herbicidal effect rating [2, 7] | CYPSE herbicidal effect rating [3, 7] | CYPSE herbicidal effect rating [3, 8] | CYPSE herbicidal effect rating [3, 9] | CYPSE herbicidal effect rating [3, 10] | ORYSAT herbicidal effect rating [4, 11] | ORYSAT herbicidal effect rating [4, 12] | ORYSAT herbicidal effect rating [4, 13] | ORYSAT herbicidal effect rating [4, 14] | SAGPY herbicidal effect rating [5, 7] | SAGPY herbicidal effect rating [5, 8] | SAGPY herbicidal effect rating [5, 9] | SAGPY herbicidal effect rating [5, 10] | MOOVA herbicidal effect rating [6, 7] | MOOVA herbicidal effect rating [6, 8]

CCCCS(=O)(=O)NC(=O)C(C)Oc1ccc(C)cc1-c1nsc2ccc(-n3c(=O)cc(C(F)(F)F)n(C)c3=O)cc12 (stereo not shown) [Example 575, Propionamide, N-(butylsulfonyl)-2-{{2-{5-[3,6-dihydro-3-methyl-2,6-dioxo-4-(trifluoromethyl)-1(2H)-pyrimidinyl]-1,2-benzisothiazol-3-yl}-p-tolyl}oxy}-]
0.0: herbicidal effect rating, CYPIR [1, 7] | herbicidal effect rating, CYPIR [1, 8] | herbicidal effect rating, CYPSE [3, 7] | herbicidal effect rating, CYPSE [3, 8] | herbicidal effect rating, CYPSE [3, 9] | herbicidal effect rating ORYSAT [4, 11] | herbicidal effect rating ORYSAT [4, 12] | herbicidal effect rating ORYSAT [4, 13] | herbicidal effect rating, SAGPY [5, 7] | herbicidal effect rating, SAGPY [5, 8] | herbicidal effect rating, SAGPY [5, 9]
9.0: herbicidal effect rating, ECHORC [2, 10] | herbicidal effect rating, MOOVA [6, 9] | herbicidal effect rating, MOOVA [6, 10]
2.0: herbicidal effect rating, ECHORC [2, 7] | herbicidal effect rating, CYPSE [3, 10] | herbicidal effect rating ORYSAT [4, 14]
3.0: herbicidal effect rating, SAGPY [5, 10]
6.0: herbicidal effect rating, CYPIR [1, 10] | herbicidal effect rating, ECHORC [2, 9]
5.0: herbicidal effect rating, ECHORC [2, 8]
4.0: herbicidal effect rating, CYPIR [1, 9] | herbicidal effect rating, MOOVA [6, 7] | herbicidal effect rating, MOOVA [6, 8]

COC(=O)CN(Cc1nsc2ccc(-n3c(=O)cc(C(F)(F)F)n(C)c3=O)cc12)S(C)(=O)=O [Example 306, Glycine, N-{{5-[3,6-dihydro-3-methyl-2,6-dioxo-4-(trifluoromethyl)-1(2H)-pyrimidinyl]-1,2-benzisothiazol-3-yl}methyl}-N-(methylsulfonyl)-, methyl ester]
0.0: herbicidal effect rating, CYPIR [1, 15] | herbicidal effect rating, ECHORC [2, 15] | herbicidal effect rating, CYPSE [3, 15] | herbicidal effect rating ORYSAT [4, 14] | herbicidal effect rating, SAGPY [5, 15] | herbicidal effect rating, MOOVA [6, 15]

CN(C(=O)c1nsc2ccc(-n3c(=O)cc(C(F)(F)F)n(C)c3=O)cc12)S(=O)(=O)Cc1ccccc1 [Example 494, 1,2-Benzisothiazole-3-carboxamide, N-(benzylsulfonyl)-5-[3,6-dihydro-3-methyl-2,6-dioxo-4-(trifluoromethyl)-1(2H)-pyrimidinyl]-N-methyl-]
5.0: CYPIR herbicidal rating [1, 18] | CYPIR herbicidal rating [1, 19] | MOOVA herbicidal rating [6, 18]
0.0: ECHORC herbicidal rating [2, 16] | CYPSE herbicidal rating [3, 18] | ORYSAT herbicidal rating (rice tolerance) ([4]; 0.0320 kg/ha, rated three to four weeks after treatment) | ORYSAT herbicidal rating (rice tolerance) ([4]; 0.0620 kg/ha, rated three to four weeks after treatment) | ORYSAT herbicidal rating (rice tolerance) ([4]; 0.1250 kg/ha, rated three to four weeks after treatment) | ORYSAT herbicidal rating (rice tolerance) ([4]; 0.2500 kg/ha, rated three to four weeks after treatment) | SAGPY herbicidal rating [5, 16] | SAGPY herbicidal rating [5, 17] | SAGPY herbicidal rating [5, 18]
4.0: CYPIR herbicidal rating [1, 17] | MOOVA herbicidal rating [6, 16] | MOOVA herbicidal rating [6, 17]
2.0: ECHORC herbicidal rating [2, 17]
3.0: CYPIR herbicidal rating [1, 16] | ECHORC herbicidal rating [2, 18] | ECHORC herbicidal rating [2, 19] | CYPSE herbicidal rating [3, 19] | SAGPY herbicidal rating [5, 19]
6.0: MOOVA herbicidal rating [6, 19]

COCCOC(=O)C(C)(C)Oc1ccc(C)cc1-c1nsc2ccc(-n3c(=O)cc(C(F)(F)F)n(C)c3=O)cc12 [Example 546, Propionic acid, 2-{{2-{5-[3,6-dihydro-3-methyl-2,6-dioxo-4-(trifluoromethyl)-1(2H)-pyrimidinyl]-1,2-benzisothiazol-3-yl}-p-tolyl}oxy}-2-methyl-, 2-methoxyethyl ester]
3.0: herbicidal effect rating, CYPIR [1, 20] | herbicidal effect rating ORYSAT ([4]; Rate 0.0620 kg/ha, rated 3-4 weeks after treatment)
6.0: herbicidal effect rating, CYPIR [1, 22] | herbicidal effect rating ORYSAT ([4]; Rate 0.5000 kg/ha, rated 3-4 weeks after treatment) | herbicidal effect rating, MOOVA [6, 20]
4.1: herbicidal effect rating, ECHORC [2, 20]
0.0: herbicidal effect rating, CYPSE [3, 20] | herbicidal effect rating, CYPSE [3, 21] | herbicidal effect rating, CYPSE [3, 24] | herbicidal effect rating, SAGPY [5, 20] | herbicidal effect rating, SAGPY [5, 21]
9.0: herbicidal effect rating, CYPIR [1, 23] | herbicidal effect rating, ECHORC [2, 23] | herbicidal effect rating, ECHORC [2, 24] | herbicidal effect rating, CYPSE [3, 22] | herbicidal effect rating, CYPSE [3, 23] | herbicidal effect rating, SAGPY [5, 23] | herbicidal effect rating, SAGPY [5, 24] | herbicidal effect rating, MOOVA [6, 23] | herbicidal effect rating, MOOVA [6, 24]
4.0: herbicidal effect rating, CYPIR [1, 21] | herbicidal effect rating ORYSAT ([4]; Rate 0.1250 kg/ha, rated 3-4 weeks after treatment) | herbicidal effect rating, SAGPY [5, 22]
7.0: herbicidal effect rating ORYSAT ([4]; Rate 0.2500 kg/ha, rated 3-4 weeks after treatment) | herbicidal effect rating, MOOVA [6, 21] | herbicidal effect rating, MOOVA [6, 22]
2.0: herbicidal effect rating, CYPIR [1, 24] | herbicidal effect rating ORYSAT ([4]; Rate 0.0320 kg/ha, rated 3-4 weeks after treatment)
4.3: herbicidal effect rating, ECHORC [2, 21]
4.6: herbicidal effect rating, ECHORC [2, 22]
